Reference: patent US9932637B2, “Genetic polymorphisms associated with cardiovascular disorders and drug response, methods of detection and uses thereof” (CELERA CORPORATION, priority 2003, dated 2018)
Where “and” joins values, the source holds several entries; their conditions need not be identical. Equal entries are not always repeated.

Tested on: patients with prior myocardial infarction (CARE study)
Experiment: CARE aligned analysis (prospective and case/control design, white males): association of genotypes with pravastatin efficacy (Tables 13, 15)
Assay type: in vivo, human
Conditions: for 2 Rare Alleles n/total, Pravastatin Patients / 2 Rare Alleles (%), Pravastatin Patients / Pravastatin Patients (%) / Pravastatin Patients n/total: F&NF MI; for 2 rare alleles n/total (%), pravastatin patients / Pravastatin vs placebo odds ratio, 0 rare alleles / Pravastatin vs placebo odds ratio, 1 rare allele / Pravastatin vs placebo odds ratio, 2 rare alleles: CARE, F MI/SD/NF MI; for Pravastatin Patients (%) / Pravastatin Patients n/total: WM
Method: The data presented in Table 8 based on an association of genotypes with pravastatin efficacy of the CARE samples were further analyzed and presented in Table 13. The further analysis was performed to align the data obtained from the analysis of the CARE samples, which was a prospective study, to the analysis of the WOSCOP samples, which was a case/control study. Table 13 also presents an analysis of the association of genotypes with pravastatin efficacy in the WOSCOPs samples. Relative to the analysis performed on the data presented in Table 8, there are two significant differences to determine if the SNP influenced pravastatin efficacy. Data obtained from the CARE samples were separated by study design into two groups, those in the prospective study design group and those in the case/control study design group. The original care study contained 16 protocol defined cardiovascular disease defined endpoints and 150 other phenotypes. […] The control groups used to compare the data were also divided into two groups, the “all possible” control group and the “cleaner” control group. […] Because the participants in the WOSCOPs trial were all white males, only data obtained from white males in the CARE study were analysed. Data from the “all possible” and “cleaner” controls were compared to data obtained from the cases in the prospective study design while only data from “cleaner” controls were compared to cases in the case/control study design. The data from the case/control cohorts were analysed using conditional logistic regression (as opposed to logistic regression used for the original anaylsis).
The anaylsis was refined as described for both Tables 13 and 14.

[1] = F7 hCV783184, CARE Case/Control
[2] = F13A1 hCV11972326, CARE Case/Control
[3] = FABP1 hCV16173091, CARE Case/Control
[4] = FCAR hCV7841842, CARE Case/Control
[5] = FN1 hCV9506149, CARE Case/Control
[6] = GALC hCV25922440, CARE Prospective
[7] = GAPD hCV8921288, CARE Case/Control
[8] = GAPD hCV8921288, CARE Prospective
[9] = HLA-DPB1 hCV8851065, 0 Rare Alleles, CARE Case/Control, All Possible controls
[10] = HLA-DPB1 hCV8851065, 0 Rare Alleles, CARE Case/Control, Cleaner controls
[11] = HLA-DPB1 hCV8851065, 1 Rare Allele, CARE Case/Control, All Possible controls
[12] = HLA-DPB1 hCV8851065, 1 Rare Allele, CARE Case/Control, Cleaner controls
[13] = HLA-DPB1 hCV8851065, Case/Control
[14] = HLA-DPB1 hCV8851065, Prospective
[15] = HLA-DPB1 hCV8851084, 0 Rare Alleles, CARE Case/Control, All Possible controls
[16] = HLA-DPB1 hCV8851084, 0 Rare Alleles, CARE Case/Control, Cleaner controls
[17] = HLA-DPB1 hCV8851084, 0 Rare Alleles, CARE Prospective, Cleaner controls
[18] = HLA-DPB1 hCV8851084, 1 Rare Allele, CARE Case/Control, All Possible controls
[19] = HLA-DPB1 hCV8851084, 1 Rare Allele, CARE Case/Control, Cleaner controls
[20] = HLA-DPB1 hCV8851084, 1 Rare Allele, CARE Prospective, Cleaner controls
[21] = HLA-DPB1 hCV8851084, Case/Control
[22] = HLA-DPB1 hCV8851084, Prospective
[23] = HLA-DPB1 hCV8851085, 0 Rare Alleles, CARE Case/Control, All Possible controls
[24] = HLA-DPB1 hCV8851085, 0 Rare Alleles, CARE Case/Control, Cleaner controls
[25] = HLA-DPB1 hCV8851085, 0 Rare Alleles, CARE Prospective, All Possible controls

`CC[C@H](C)C(=O)O[C@H]1C[C@H](O)C=C2C=C[C@H](C)[C@H](CC[C@@H](O)C[C@@H](O)CC(=O)O)[C@H]21` [pravastatin] was tested, and the “2 Rare Alleles n/total, Pravastatin Patients” value (F7 hCV783138, CARE Prospective) was 1/13 and 1/9, the “2 Rare Alleles (%), Pravastatin Patients” value [1] was “(14.3%)” and the “2 Rare Alleles n/total, Pravastatin Patients” value [1] was 2/14. The “2 Rare Alleles (%), Pravastatin Patients” value (F7 hCV783184, CARE Prospective) was “(14.3%)”, the “2 Rare Alleles n/total, Pravastatin Patients” value (F7 hCV783184, CARE Prospective) was 2/14 and the “2 Rare Alleles (%), Pravastatin Patients” value [2] was “(19.4%)”. The “2 Rare Alleles n/total, Pravastatin Patients” value [2] was 14/72, the “2 Rare Alleles (%), Pravastatin Patients” value [3] was “(20.9%)” and the “2 Rare Alleles n/total, Pravastatin Patients” value [3] was 19/91. For the same compound, the “2 Rare Alleles n/total, Pravastatin Patients” value (FABP1 hCV16173091, CARE Prospective) was 19/127 and 19/91, the “2 rare alleles n/total (%), pravastatin patients” value (“2 rare alleles n/total (%)” for short) (FCAR hCV7841642, Prospective) was “(12.5%)” and the “Pravastatin vs placebo odds ratio, 0 rare alleles” value (FCAR hCV7841642, Prospective) was 0.84. For the same compound, the “Pravastatin vs placebo odds ratio, 1 rare allele” value (FCAR hCV7841642, Prospective) was 0.27, the “Pravastatin vs placebo odds ratio, 2 rare alleles” value (FCAR hCV7841642, Prospective) was 0.43 and the “2 Rare Alleles (%), Pravastatin Patients” value [4] was “(12.5%)”. The “2 Rare Alleles n/total, Pravastatin Patients” value [4] was 1/8, the “2 Rare Alleles (%), Pravastatin Patients” value [5] was “(13.8%)” and the “2 Rare Alleles n/total, Pravastatin Patients” value [5] was 12/87. For the same compound, the “2 Rare Alleles (%), Pravastatin Patients” value [6] was “(14.7%)”, the “2 Rare Alleles n/total, Pravastatin Patients” value [6] was 5/34 and the “2 rare alleles n/total (%)” value (GALC hCV25922440, Prospective) was “(14.7%)”. For the same compound, the “Pravastatin vs placebo odds ratio, 0 rare alleles” value (GALC hCV25922440, Prospective) was 0.94, the “Pravastatin vs placebo odds ratio, 1 rare allele” value (GALC hCV25922440, Prospective) was 0.38 and the “Pravastatin vs placebo odds ratio, 2 rare alleles” value (GALC hCV25922440, Prospective) was 1.12. The “2 Rare Alleles (%), Pravastatin Patients” value [7] was “(7.5%)”, the “2 Rare Alleles n/total, Pravastatin Patients” value [7] was 4/53 and 4/38 and the “2 Rare Alleles (%), Pravastatin Patients” value [8] was “(10.5%)”. For the same compound, the “2 Rare Alleles n/total, Pravastatin Patients” value [8] was 4/38, the “Pravastatin Patients (%)” value [9] was “(10.0%)” and the “Pravastatin Patients n/total” value [9] was 63/633. For the same compound, the “Pravastatin Patients (%)” value [10] was “(14.2%)”, the “Pravastatin Patients n/total” value [10] was 63/445 and the “Pravastatin Patients (%)” value [11] was “(10.0%)”. The “Pravastatin Patients n/total” value [11] was 49/491, the “Pravastatin Patients (%)” value [12] was “(14.9%)” and the “Pravastatin Patients n/total” value [12] was 49/329. For the same compound, the “2 rare alleles n/total (%)” value [13] was “(14.8%)”, the “Pravastatin vs placebo odds ratio, 0 rare alleles” value [13] was 0.60 and 0.52 and the “Pravastatin vs placebo odds ratio, 1 rare allele” value [13] was 0.87 and 0.80. For the same compound, the “Pravastatin vs placebo odds ratio, 2 rare alleles” value [13] was 5.02 and 5.41, the “2 rare alleles n/total (%)” value [14] was “(14.8%)” and the “Pravastatin vs placebo odds ratio, 0 rare alleles” value [14] was 0.62 and 0.55. The “Pravastatin vs placebo odds ratio, 1 rare allele” value [14] was 0.86 and 0.76, the “Pravastatin vs placebo odds ratio, 2 rare alleles” value [14] was 4.85 and 4.94 and the “Pravastatin Patients (%)” value [15] was “(10.2%)”. For the same compound, the “Pravastatin Patients n/total” value [15] was 80/785, the “Pravastatin Patients (%)” value [16] was “(14.7%)” and the “Pravastatin Patients n/total” value [16] was 80/546. For the same compound, the “Pravastatin Patients (%)” value [17] was “(14.4%)”, the “Pravastatin Patients n/total” value [17] was 80/556 and the “Pravastatin Patients (%)” value [18] was “(10.1%)”. For the same compound, the “Pravastatin Patients n/total” value [18] was 39/385, the “Pravastatin Patients (%)” value [19] was “(14.9%)” and the “Pravastatin Patients n/total” value [19] was 39/262. For the same compound, the “Pravastatin Patients (%)” value [20] was “(14.7%)”, the “Pravastatin Patients n/total” value [20] was 39/265 and the “2 Rare Alleles (%), Pravastatin Patients” value (HLA-DPB1 hCV8851084, CARE Prospective) was “(25.0%)”. The “2 rare alleles n/total (%)” value [21] was “(22.6%)”, the “Pravastatin vs placebo odds ratio, 0 rare alleles” value [21] was 0.60 and the “Pravastatin vs placebo odds ratio, 1 rare allele” value [21] was 0.84. The “Pravastatin vs placebo odds ratio, 2 rare alleles” value [21] was 5.83, the “2 rare alleles n/total (%)” value [22] was “(22.6%)” and the “Pravastatin vs placebo odds ratio, 0 rare alleles” value [22] was 0.61. For the same compound, the “Pravastatin vs placebo odds ratio, 1 rare allele” value [22] was 0.82, the “Pravastatin vs placebo odds ratio, 2 rare alleles” value [22] was 4.81 and the “Pravastatin Patients (%)” value [23] was “(10.1%)”. The “Pravastatin Patients n/total” value [23] was 74/733, the “Pravastatin Patients (%)” value [24] was “(14.4%)” and the “Pravastatin Patients n/total” value [24] was 74/513. For the same compound, the “Pravastatin Patients (%)” value [25] was “(9.9%)” and the “Pravastatin Patients n/total” value [25] was 74/747.
